Results reported in patent US9018142B2, “Oil-field biocide method utilizing a peracid” (PeroxyChem LLC, priority 2008, dated 2015).

Assays:
[1] = system: Desulfotomaculum nigrificans (ATCC 19858); experiment: D. nigrificans growth after biocide exposure in 0.1 wt % polyacrylamide; assay type: cell-based; design: key to D. nigrificans Growth Results / D. nigrificans Growth Results, Neutral Control: positive (+); negative (NEG)
Description: Example 2 illustrates the biocidal efficacy of peracetic acid, compared with glutaraldehyde, against another strain of sulfur-reducing bacteria, Desulfotomaculum nigrificans, present in an aqueous solution also containing 0.1 wt % polyacrylamide polymer. A range of peracetic acid and glutaraldehyde concentrations were evaluated for biocidal efficacy: 1, 5, 10, 25, 50, 75, 100, 200 and 300 ppm peracetic acid and the same concentrations for glutaraldehyde (except that 300 ppm was omitted).
The dilute aqueous polyacrylamide was prepared using an aqueous 50 wt % polyacrylamide solution (Sigma-Aldrich, St. Louis, Mo.) and diluting the polyacrylamide with deionized water to obtain 0.1 wt % polyacrylamide in water. The peracetic acid was Vigor Ox® SP-15 antimicrobial agent, containing about 15-17 wt % peracetic acid, 9-11 wt % hydrogen peroxide and 33-38 wt % acetic acid in water (FMC Corporation, Philadelphia, Pa.), and this peracetic acid solution was diluted to the desired concentration within the range 1 to 300 ppm peracetic acid for the various evaluations. The glutaraldehyde used in this Example 2 was a 50 wt % glutaraldehyde solution in water (Alfa Aesar, Ward Hill, Mass.), diluted with deionized water to the desired concentration within the range 1 to 200 ppm for the evaluations.
The bacterial strain used in this Example 2 was the sulfur-reducing bacterium Desulfotomaculum nigrificans (ATCC 19858 from American Type Culture Collection, Manassas, Va.). A working inoculum for each of the three studies described below was prepared by the following procedure. Baar's medium for sulfate reducers was inoculated with D. nigrificans from a cryogenic tube, grown at 50° C. anaerobically for a period sufficient to observe good growth of the culture (evident by blackening of the tube), between 2-7 days. This D. nigrificans culture was used as the working inoculum for each of the studies described below.
The methodology used in this Example 2 was as follows. A sterilized screw-cap tube containing 9.5-10 ml 0.1 wt % polyacrylamide was dosed with an appropriate amount of peracetic acid (or glutaraldehyde) to provide the desired peracetic acid (or glutaraldehyde) concentration (e.g., 1 to 300 ppm peracetic acid) in 10 ml 0.1 wt % polyacrylamide required for the study. The tubes were then vortex mixed and 0.1 ml D. nigrificans inoculum was added and again vortex mixed. The initial inoculation level was estimated as about 2.6×10^6 CFU/tube. Timing of the exposure period (e.g., 1 minute to 1 day) was begun when the D. nigrificans inoculum was added.
After the exposure period had elapsed, 1 ml of the treated mixture was added to a second tube containing 9 ml of Dey-Engley (D/E) neutralizing broth and vortex mixed. After about 5-8 minutes had elapsed, 1 ml of the neutralized solution was added to yet another tube containing 9 ml of Baar's modified medium for sulfate reducers. This tube was vortex mixed and then incubated anaerobically at 50° C., with the screw cap loosened, using an AnaeroPack (Mitsubishi Gas Chemical America, Inc., New York, N.Y.) in an anaerobic jar.
Growth controls were also carried out in the studies of this Example 2, using the following procedure. A screw-cap tube containing 10 ml of 0.1 wt % polyacrylamide was inoculated with 0.1 ml of D. nigrificans culture and then diluted in D/E neutralizing broth after the exposure period, vortex mixed, and then diluted in Baar's medium as described above. The control tubes were incubated at 50° C., also as described above, and monitored for growth after two days.
Neutralizing controls were also carried out for the peracetic acid and glutaraldehyde treatment agents to confirm that D/E neutralizing broth (which contains sodium bisulfite and […] among its neutralizing agents) was capable of neutralizing either peracetic acid or glutaraldehyde at the highest concentration used in each study. […]

[2] = system: Desulfovibrio desulfuricans (vulgaris) (ATCC 7757); experiment: Biocidal efficacy against sulfur-reducing bacteria in 0.1 wt % polyacrylamide (colony population analysis, CFU); assay type: cell-based; conditions: not a side-by-side comparative study
Description: Example 1 illustrates the biocidal efficacy of peracetic acid, compared with glutaraldehyde, against a strain of sulfur-reducing bacteria, Desulfovibrio desulfuricans (vulgaris), present in an aqueous solution also containing 0.1 wt % polyacrylamide polymer. A range of peracetic acid and glutaraldehyde concentrations were evaluated for biocidal efficacy: 5, 10, 30, 150 and 300 ppm peracetic acid and 25 and 500 ppm glutaraldehyde.
The dilute aqueous polyacrylamide was prepared using a 50 wt % polyacrylamide solution in water, with the polyacrylamide having an average molecular weight ˜10,000 (Aldrich No. 434949, Sigma-Aldrich, St. Louis, Mo.). The peracetic acid was Vigor Ox® SP-15 antimicrobial agent, containing about 15-17 wt % peracetic acid, 9-11 wt % hydrogen peroxide and 33-38 wt % acetic acid in water (FMC Corporation, Philadelphia, Pa.), and this peracetic acid solution was diluted to 5, 10, 30, 150 and 300 ppm peracetic acid for the various evaluations. The glutaraldehyde used in this Example 1 was a 25 wt % glutaraldehyde solution in water (Sigma-Aldrich No. G4004, Sigma-Aldrich, St. Louis, Mo.), diluted to either 25 or 500 ppm for the evaluations. […]
Peracetic acid and glutaraldehyde were next evaluated for biocidal efficacy against the sulfur-reducing bacterium Desulfovibrio vulgaris. […]

[3] = at 25° C.; cited from earlier work
[4] = first study, 1 ppm, 1 minute exposure
[5] = first study, 1 ppm, 1 hour exposure
[6] = first study, 1 ppm, 1 day exposure
[7] = first study, 5 ppm, 1 minute exposure
[8] = first study, 5 ppm, 1 hour exposure
[9] = first study, 5 ppm, 1 day exposure
[10] = first study, 10 ppm, 1 minute exposure
[11] = first study, 10 ppm, 1 hour exposure
[12] = first study, 10 ppm, 1 day exposure
[13] = first study, 25 ppm, 1 minute exposure
[14] = first study, 25 ppm, 1 hour exposure
[15] = first study, 25 ppm, 1 day exposure
[16] = first study, 50 ppm biocide neutralized in D/E neutralizing broth before inoculation
[17] = first study, 50 ppm, 1 minute exposure
[18] = first study, 50 ppm, 1 hour exposure
[19] = first study, 50 ppm, 1 day exposure
[20] = second study, 50 ppm, 10 minutes exposure
[21] = second study, 50 ppm, 1 hour exposure
[22] = second study, 50 ppm, 1 day exposure
[23] = second study, 75 ppm, 10 minutes exposure
[24] = second study, 75 ppm, 1 hour exposure
[25] = second study, 75 ppm, 1 day exposure
[26] = second study, 100 ppm, 10 minutes exposure
[27] = second study, 100 ppm, 1 hour exposure
[28] = second study, 100 ppm, 1 day exposure
[29] = second study, 200 ppm biocide neutralized in D/E neutralizing broth before inoculation
[30] = second study, 200 ppm, 10 minutes exposure
[31] = second study, 200 ppm, 1 hour exposure
[32] = second study, 200 ppm, 1 day exposure

## O=CCCCC=O [Glutaraldehyde, glutaraldehyde, reference compound]
[1]; [4]
  D. nigrificans Growth Results: +
[1]; [5]
  D. nigrificans Growth Results: +
[1]; [6]
  D. nigrificans Growth Results: +
[1]; [7]
  D. nigrificans Growth Results: +
[1]; [8]
  D. nigrificans Growth Results: +
[1]; [9]
  D. nigrificans Growth Results: +
[1]; [10]
  D. nigrificans Growth Results: +
[1]; [11]
  D. nigrificans Growth Results: +
[1]; [12]
  D. nigrificans Growth Results: +
[1]; [13]
  D. nigrificans Growth Results: +
[1]; [14]
  D. nigrificans Growth Results: +
[1]; [15]
  D. nigrificans Growth Results: +
[1]; [16]
  D. nigrificans Growth Results, Neutral Control: +
[1]; [17]
  D. nigrificans Growth Results: +
[1]; [18]
  D. nigrificans Growth Results: +
[1]; [19]
  D. nigrificans Growth Results: +
[1]; first study, any of the concentrations (1 to 50 ppm) or exposure times (1 minute, 1 hour, 1 day)
  biocidal control of D. nigrificans: no biocidal control
[1]; [20]
  D. nigrificans Growth Results: +
[1]; [21]
  D. nigrificans Growth Results: +
[1]; [22]
  D. nigrificans Growth Results: +
[1]; [23]
  D. nigrificans Growth Results: +
[1]; [24]
  D. nigrificans Growth Results: +
[1]; [25]
  D. nigrificans Growth Results: +
[1]; [26]
  D. nigrificans Growth Results: +
[1]; [27]
  D. nigrificans Growth Results: +
[1]; [28]
  D. nigrificans Growth Results: +
[1]; [29]
  D. nigrificans Growth Results, Neutral Control: +
[1]; [30]
  D. nigrificans Growth Results: +
[1]; [31]
  D. nigrificans Growth Results: +
[1]; [32]
  D. nigrificans Growth Results: +
[1]; second study, any of the concentrations (50 to 200 ppm) or exposure times (10 minutes, 1 hour, 1 day)
  biocidal control of D. nigrificans: no biocidal control

## Peracetic acid
[2]
  biocidal efficacy against D. vulgaris compared with the glutaraldehyde treatment: at least equivalent in performance
[1]; first study, 1 ppm, 5 ppm or 10 ppm, any of the exposure times
  biocidal control of D. nigrificans: no biocidal control
[1]; [4]
  D. nigrificans Growth Results: +
[1]; [5]
  D. nigrificans Growth Results: +
[1]; [6]
  D. nigrificans Growth Results: +
[1]; [7]
  D. nigrificans Growth Results: +
[1]; [8]
  D. nigrificans Growth Results: +
[1]; [9]
  D. nigrificans Growth Results: +
[1]; [10]
  D. nigrificans Growth Results: +
[1]; [11]
  D. nigrificans Growth Results: +
[1]; [12]
  D. nigrificans Growth Results: +
[1]; first study, 25 ppm and 50 ppm, 1 day exposure
  biocidal control of D. nigrificans: provided biocidal control
[1]; [13]
  D. nigrificans Growth Results: +
[1]; [14]
  D. nigrificans Growth Results: +
[1]; [15]
  D. nigrificans Growth Results: NEG
[1]; [16]
  D. nigrificans Growth Results, Neutral Control: +
[1]; [17]
  D. nigrificans Growth Results: +
[1]; [18]
  D. nigrificans Growth Results: NEG and +
[1]; [19]
  D. nigrificans Growth Results: NEG
[1]; first study, 50 ppm, one hour, NEG for one of the two replicates
  biocidal activity against D. nigrificans: some biocidal activity
[1]; second study, 50, 75, 100 and 200 ppm, 1 day exposure
  biocidal control of D. nigrificans: provided biocidal control
[1]; [20]
  D. nigrificans Growth Results: +
[1]; [21]
  D. nigrificans Growth Results: +
[1]; [22]
  D. nigrificans Growth Results: NEG
[1]; [23]
  D. nigrificans Growth Results: +
[1]; [24]
  D. nigrificans Growth Results: NEG
[1]; [25]
  D. nigrificans Growth Results: NEG
[1]; [26]
  D. nigrificans Growth Results: +
[1]; [27]
  D. nigrificans Growth Results: NEG and +
[1]; [28]
  D. nigrificans Growth Results: NEG
[1]; [29]
  D. nigrificans Growth Results, Neutral Control: +
[1]; [30]
  D. nigrificans Growth Results: +
[1]; [31]
  D. nigrificans Growth Results: NEG
[1]; [32]
  D. nigrificans Growth Results: NEG
[1]; second study, 10 minutes exposure, any of the concentrations
  biocidal activity against D. nigrificans: no biocidal activity
[1]; second study, 1 hour exposure, 75 ppm, 100 ppm (1 of 2 replicates), 200 ppm
  biocidal activity against D. nigrificans: demonstrated biocidal activity
[1]; third study, 100 ppm, 10 minutes exposure
  D. nigrificans Growth Results: +
[1]; third study, 100 ppm, 30 minutes exposure
  D. nigrificans Growth Results: + and NEG
[1]; third study, 100 ppm, 60 minutes exposure
  D. nigrificans Growth Results: NEG and +
[1]; third study, 200 ppm, 10 minutes exposure
  D. nigrificans Growth Results: +
[1]; third study, 200 ppm, 30 minutes exposure
  D. nigrificans Growth Results: NEG
[1]; third study, 200 ppm, 60 minutes exposure
  D. nigrificans Growth Results: NEG
[1]; third study, 300 ppm peracetic acid neutralized in D/E neutralizing broth before inoculation
  D. nigrificans Growth Results, Neutral Control: +
[1]; third study, 300 ppm, 10 minutes exposure
  D. nigrificans Growth Results: NEG
[1]; third study, 300 ppm, 30 minutes exposure
  D. nigrificans Growth Results: NEG
[1]; third study, 300 ppm, 60 minutes exposure
  D. nigrificans Growth Results: NEG and +
[1]; third study, 30 minutes, 100 ppm (2 of 3 replicates), 200 ppm, 300 ppm
  biocidal activity against D. nigrificans: demonstrated biocidal activity
[1]; third study, 60 minutes, 100 ppm (2 of 3 replicates), 200 ppm, 300 ppm (2 of 3 replicates)
  biocidal control of D. nigrificans: provided biocidal control
[1]; third study, ten minutes, 100 and 200 ppm
  biocidal activity against D. nigrificans: did not exhibit biocidal activity
[1]; third study, ten minutes, 300 ppm
  biocidal control of D. nigrificans: exhibited biocidal control
[3]
  pKa: about 8.2
